From US12435061B2 (priority 2020, dated 2025)
Values after ≈ are worked out from the molar mass of the structure shown. Where two headings read alike, the source gives them in different places.

How the values were obtained:
hTRPV3 = hTRPV3 (Homo sapiens (Human), UniProt Q8NET8); test: Whole-cell patch clamp, hTRPV3 Phase 1 / Phase 2 currents; type: cell-based
Method in brief: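 Whole-cell recordings on induced TRPV3 cells replated on coverslips, held at −40 mV with 400 ms ramps from −120 to +100 mV every 5 s; currents read at −80 and +80 mV. Ringer's external solution; current activated by heating to ≥28 °C or 20 μM 2-APB.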

[1] = Aqueous solubility assay in Normal Ringer Solution; conditions: Normal Ringer Solution; for solubility at 40 min: saline or isotonic, kinetic from dmso stock
Procedure: Following vortex and incubation for a sufficient time (e.g. 40 minutes at room temperature), solutions were filtered, quenched with acetonitrile, and analyzed by Liquid Chromotography. Solubility Limits were determined by comparison to a standard curve.

[2] = Metabolic Stability assay, rat liver microsomes; type: in vitro ADME
Procedure: Metabolic Stability assay: The metabolic stability was determined by adding compound dissolved in DMSO to human or rat, liver microsomes. Briefly, assays were run with a starting concentration of 1 μM test article. The reaction was started by addition of NADPH regeneration components at 37° C. at which time an aliquot was immediately quenched in ice-cold acetonitrile/MeOH/H2O solution. Reaction mixture was incubated at 37° C. on a shaker, and additional aliquots were taken at 7, 15, 30 and 60 minutes. Following quench and centrifugation, samples were analyzed on HPLC/MS/MS.

[3] = Phase 1 current, inward, whole-cell patch clamp, read-out: hTRPV3 Patch P1 Inwd
[4] = Phase 1 current, read-out: hTRPV3 (nM) (Phase 1)
[5] = Phase 2 current, inward, whole-cell patch clamp, read-out: hTRPV3 Patch P2 Inwd
[6] = Phase 2 current, read-out: hTRPV3 (nM) (Phase 2)
[7] = Phase 1 current, human TRPV3, read-out: hTRPV3 (nM) Phase 1

hTRPV3, sequence (Q8NET8 whole entry): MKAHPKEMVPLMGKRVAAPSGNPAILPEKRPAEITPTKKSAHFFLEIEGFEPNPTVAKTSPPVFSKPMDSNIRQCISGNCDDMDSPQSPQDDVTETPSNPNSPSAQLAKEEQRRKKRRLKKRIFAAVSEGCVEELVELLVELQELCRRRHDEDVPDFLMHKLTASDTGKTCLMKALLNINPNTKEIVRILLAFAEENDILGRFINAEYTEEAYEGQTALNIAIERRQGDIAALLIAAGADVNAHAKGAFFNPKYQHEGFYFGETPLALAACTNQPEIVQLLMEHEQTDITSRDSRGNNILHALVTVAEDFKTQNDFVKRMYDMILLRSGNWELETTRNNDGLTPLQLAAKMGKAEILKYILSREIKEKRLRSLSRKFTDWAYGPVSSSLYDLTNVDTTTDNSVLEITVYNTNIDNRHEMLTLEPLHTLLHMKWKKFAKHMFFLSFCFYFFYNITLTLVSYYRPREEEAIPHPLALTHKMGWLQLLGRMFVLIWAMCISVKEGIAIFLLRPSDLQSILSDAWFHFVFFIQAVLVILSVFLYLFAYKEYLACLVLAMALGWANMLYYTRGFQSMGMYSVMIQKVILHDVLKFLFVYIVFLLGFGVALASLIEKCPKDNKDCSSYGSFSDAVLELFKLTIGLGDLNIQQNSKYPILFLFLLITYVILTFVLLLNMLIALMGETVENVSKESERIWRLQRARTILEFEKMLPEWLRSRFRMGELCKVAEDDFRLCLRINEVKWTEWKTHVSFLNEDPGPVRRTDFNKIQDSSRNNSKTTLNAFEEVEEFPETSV

Row | SMILES | IC50 (hTRPV3; [3]) | IC50 (hTRPV3; [4]) | IC50 (hTRPV3; [5]) | solubility at 40 min [1] | half-life at 1 μM ([2]; read-out: LM T1/2 (min) (rat)) | also measured
1 | COCc1ccccc1-c1ccc(N2CC[C@H](Oc3ccc(C(F)(F)F)cn3)C2)c(CO)c1 [Compound 1-160, (S)-(2′-(methoxymethyl)-4-(3-(5-(trifluoromethyl)pyridin-2-yloxy)pyrrolidin-1-yl)biphenyl-3-yl)methanol] | 10 to 100 nM | 71.6 nM | 100 to 1000 nM | ~0.4 µM (≈ 0.183 µg/mL) | 19.1 min | IC50 (hTRPV3; [6]): 106 nM
2 | CCc1ccccc1-c1ccc(C2CCN(C(=O)c3ccc(OC)cn3)C2)c(CO)c1 (stereo not shown) [Compound 2-73, (3-(2′-ethyl-3-(hydroxymethyl)biphenyl-4-yl)pyrrolidin-1-yl)(5-methoxypyridin-2-yl)methanone] | 10 to 100 nM |  |  | > 26.2 µM |  | IC50 (hTRPV3; [7]): 20.5 nM; half-life at 1 μM ([2]; read-out: LM T1/2 (min) rat): 9.84 min
3 | CCc1ccccc1C(=O)c1ccc(N2CC[C@H](Oc3ncccc3Cl)C2)c(CO)c1 [Compound 1-256, (S)-(4-(3-(3-chloropyridin-2-yloxy)pyrrolidin-1-yl)-3-(hydroxymethyl)phenyl)(2-ethylphenyl)methanone] | 10 to 100 nM | 50.9 nM |  | ~0.45 µM (≈ 0.197 µg/mL) | 6.05 min | 
4 | Cc1cccc(C(=O)c2ccc(N3CC[C@H](Oc4ncccc4Cl)C3)c(CO)c2)c1 [Compound 1-282, (S)-(4-(3-(3-chloropyridin-2-yloxy)pyrrolidin-1-yl)-3-(hydroxymethyl)phenyl)(m-tolyl)methanone] | 10 to 100 nM | 62.3 nM |  | ~0.67 µM (≈ 0.283 µg/mL) | 16.1 min | 
5 | COc1ccccc1Oc1ccc(N2CC[C@H](Oc3ccc(C)cn3)C2)c(CO)n1 [Compound 1-205, (S)-(6-(2-methoxyphenoxy)-3-(3-(5-methylpyridin-2-yloxy)pyrrolidin-1-yl)pyridin-2-yl)methanol] | > 1000 nM | ~3000 nM | > 1000 nM | > 7.2 µM | 16 min | IC50 (hTRPV3; [6]): ~6000 nM
6 | CCc1ccccc1Oc1ccc(N2CC[C@H](Nc3ncccc3Cl)C2)c(CO)c1 [Compound 1-380, (S)-(2-(3-(3-chloropyridin-2-ylamino)pyrrolidin-1-yl)-5-(2-ethylphenoxy)phenyl)methanol] | 10 to 100 nM | 25.6 nM |  |  | 20.9 min | Solubility Ringer (nM) ([1]; room temperature): BLQ
7 | COCc1ccccc1Oc1ccc(N2CC[C@H](Oc3ncccc3Cl)C2)c(CCO)c1 [Compound 1-297, (S)-2-(2-(3-(3-chloropyridin-2-yloxy)pyrrolidin-1-yl)-5-(2-(methoxymethyl)phenoxy)phenyl)ethanol] | 10 to 100 nM | 56.6 nM |  | 1.4 µM (≈ 0.637 µg/mL) | 7.44 min | 
8 | O=C(c1ccc(F)cc1)c1ccc(N2CC[C@H](Oc3ncccc3Cl)C2)c(CO)c1 [Compound 1-279, (S)-(4-(3-(3-chloropyridin-2-yloxy)pyrrolidin-1-yl)-3-(hydroxymethyl)phenyl)(4-fluorophenyl)methanone] | 10 to 100 nM | 56.9 nM |  | 1.2 µM (≈ 0.512 µg/mL) | 18.4 min | 
9 | CCc1ccccc1C(=O)c1ccc(N2CC[C@H](Oc3ncccc3Cl)C2)c(CO)c1 [Compound 1-251, (S)-(4-(3-(3-chloropyridin-2-yloxy)pyrrolidin-1-yl)-3-(hydroxymethyl)phenyl)(2-ethylphenyl)methanone] | 10 to 100 nM | 102 nM |  |  |  | Solubility Ringer ([1]; room temperature): >3.6 µM; LM T1/2 (min) (rat) ([2]; 1 μM): 6.25 (rat) min
10 | NC(=O)c1cc(-c2ccccc2)ccc1N1CC[C@H](Nc2ncccc2Cl)C1 [Compound 1-377, (S)-4-(3-(3-chloropyridin-2-ylamino)pyrrolidin-1-yl)biphenyl-3-carboxamide] | 100 to 1000 nM | 360 nM | 100 to 1000 nM | > 3.2 µM | 35.6 min | IC50 (hTRPV3; [6]): 318 nM
11 | CC(C)c1ccccc1-c1ccc(C2CCN(C(=O)c3ccc(Cl)cn3)C2)c(CO)c1 (stereo not shown) [Compound 2-30] | < 10 nM |  |  | ~3.7 µM (≈ 1.61 µg/mL) |  | IC50 (hTRPV3; [7]): 2.68 nM; half-life at 1 μM ([2]; read-out: LM T1/2 (min) rat): 13.9 min
12 | Cc1ccc(O[C@H]2CCN(c3ccc(-c4ccccc4)cc3CO)C2)nc1 [Compound 1-141, (S)-(4-(3-(5-methylpyridin-2-yloxy)pyrrolidin-1-yl)biphenyl-3-yl)methanol] | 100 to 1000 nM | 125 nM |  | ~0.97 µM (≈ 0.35 µg/mL) | 38.4 min | 
13 | CC(C)c1ccccc1Oc1ccc(N2CC[C@H](Oc3ccccn3)C2)c(CO)c1 [Compound 1-316] | < 10 nM | 7.77 nM |  | > 4 µM | 18.9 min | 
14 | COc1cnc(C(=O)N2CCC(c3ccc(-c4ccccc4C4CC4)cc3CO)C2)cn1 (stereo not shown) [Compound 2-107] | 10 to 100 nM |  |  | 9.25 µM (≈ 3.97 µg/mL) |  | IC50 (hTRPV3; [7]): 31.5 nM; half-life at 1 μM ([2]; read-out: LM T1/2 (min) rat): 25.7 min
15 | CCc1ccccc1-c1ccc(C2CCN(C(=O)c3ccc(C)cn3)C2)c(CO)c1 (stereo not shown) [Compound 2-50, (3-(2′-ethyl-3-(hydroxymethyl)biphenyl-4-yl)pyrrolidin-1-yl)(5-methylpyridin-2-yl) methanone] | 10 to 100 nM |  |  | ~3.9 µM (≈ 1.56 µg/mL) |  | IC50 (hTRPV3; [7]): 89.8 nM; half-life at 1 μM ([2]; read-out: LM T1/2 (min) rat): 8.67 min
16 | Cc1ccc(C(=O)c2ccc(N3CC[C@H](Oc4ncccc4Cl)C3)c(CO)c2)cc1 [Compound 1-277, (S)-(4-(3-(3-chloropyridin-2-yloxy)pyrrolidin-1-yl)-3-(hydroxymethyl)phenyl)(p-tolyl)methanone] | 10 to 100 nM | 63 nM |  | 0.47 µM (≈ 0.199 µg/mL) | 15.7 min | 
17 | CC(C)c1ccccc1Oc1ccc(N2CC[C@H](Oc3ncccc3Cl)C2)c(CCO)c1 [Compound 1-327, (S)-2-(2-(3-(3-chloropyridin-2-yloxy)pyrrolidin-1-yl)-5-(2-isopropylphenoxy)phenyl)ethanol] |  |  |  |  | 14.6 min | IC50 (hTRPV3; hTRPV3 Patch P1 Inwd (nM)): 10 to 100 nM; IC50 (hTRPV3; read-out: hTRPV3 (nM) (Phase 1)): 15.9 nM; Solubility Ringer (nM) ([1]; room temperature): BLQ
18 | CCc1c(C)cccc1-c1ccc(C2CCN(C(=O)c3ccc(Cl)cn3)C2)c(CO)c1 (stereo not shown) [Compound 2-67, (5-chloropyridin-2-yl)(3-(2′-ethyl-3-(hydroxymethyl)-3′-methylbiphenyl-4-yl)pyrrolidin-1-yl)methanone] | < 10 nM |  |  | ~3.6 µM (≈ 1.57 µg/mL) |  | IC50 (hTRPV3; [7]): 0.698 nM; half-life at 1 μM ([2]; read-out: LM T1/2 (min) rat): 8.47 min
19 | O=C(CO)c1cc(-c2ccccc2)ccc1N1CC[C@H](Oc2ccc(C(F)(F)F)cn2)C1 [Compound 1-178, (S)-2-hydroxy-1-(4-(3-(5-(trifluoromethyl)pyridin-2-yloxy)pyrrolidin-1-yl)biphenyl-3-yl)ethanone] |  |  | 100 to 1000 nM | ~0.2 µM (≈ 0.0885 µg/mL) | 66.5 min | IC50 (hTRPV3; [6]): 146 nM
20 | OCc1cc(Oc2ccccc2F)ccc1N1CC[C@H](Oc2ncccc2Cl)C1 [Compound 1-270, (S)-(2-(3-(3-chloropyridin-2-yloxy)pyrrolidin-1-yl)-5-(2-fluorophenoxy)phenyl)methanol] | < 10 nM | 9.39 nM | < 10 nM | 1 µM (≈ 0.415 µg/mL) | 24.3 min | IC50 (hTRPV3; [6]): 7.44 nM
21 | OCc1cc(Oc2cccc(Cl)c2)ccc1N1CC[C@H](Oc2ccccn2)C1 [Compound 1-304] | 10 to 100 nM | 55.8 nM |  | ~1 µM (≈ 0.397 µg/mL) | 17.5 min | 
22 | CCc1ccccc1Oc1ccc(N2CC[C@H](Oc3ncccc3F)C2)c(CO)c1 [Compound 1-267, (S)-(5-(2-ethylphenoxy)-2-(3-(3-fluoropyridin-2-yloxy)pyrrolidin-1-yl)phenyl)methanol] | 10 to 100 nM | 19.1 nM |  | ~0.38 µM (≈ 0.155 µg/mL) | 30.6 min | 
23 | CC(C)c1ccccc1-c1ccc([C@@H]2CCN(C(=O)c3ccc(F)cn3)C2)c(CO)c1 [Compound 2-77] | < 10 nM |  |  | > 15.5 µM |  | IC50 (hTRPV3; [7]): 2.27 nM; half-life at 1 μM ([2]; read-out: LM T1/2 (min) rat): 9.14 min
24 | OCCc1cc(Oc2ccccc2F)ccc1N1CC[C@H](Oc2ncccc2F)C1 [Compound 1-313, (S)-2-(5-(2-fluorophenoxy)-2-(3-(3-fluoropyridin-2-yloxy)pyrrolidin-1-yl)phenyl)ethanol] | 10 to 100 nM | 72.5 nM | 10 to 100 nM | ~2 µM (≈ 0.825 µg/mL) | 9.29 min | IC50 (hTRPV3; [6]): 71.3 nM
25 | Cc1ccccc1C(O)c1ccc(N2CC[C@H](Oc3ncccc3Cl)C2)c(CO)c1 (stereo partly drawn) [Compound 1-247, (4-((S)-3-(3-chloropyridin-2-yloxy)pyrrolidin-1-yl)-3-(hydroxymethyl)phenyl)(o-tolyl)methanol] | 100 to 1000 nM | 132 nM | 100 to 1000 nM | > 9 µM | 13.1 min | IC50 (hTRPV3; [6]): 202 nM
26 | CC(C)c1ccccc1-c1ccc(C2CCN(C(=O)c3ccc(Cl)cn3)C2)c(C(N)=O)c1 (stereo not shown) [Compound 2-35] | 10 to 100 nM |  | 10 to 100 nM | ~3.3 µM (≈ 1.48 µg/mL) |  | IC50 (hTRPV3; [7]): 61.7 nM; IC50 (hTRPV3; Phase 2 current, human TRPV3, read-out: hTRPV3 (nM) Phase 2): 64.3 nM; half-life at 1 μM ([2]; read-out: LM T1/2 (min) rat): 7.16 min
